Source: PubChem BioAssay (NCI)
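Test compounds were applied to cells in 96-well plates for 48 hours at 5 doses. Abbreviation: GI50, concentration required for 50% inhibition of growth. TGI is the concentration that stops growth completely.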

Legend:
Assay in all cases: NCI-60 cell line screen, 48 h
786-0 renal = tested on: 786-0 renal
A498 renal = tested on: A498 renal
A549 NSCLC = tested on: A549 NSCLC
ACHN renal = tested on: ACHN renal
BT-549 breast = tested on: BT-549 breast
CAKI-1 renal = tested on: CAKI-1 renal
CCRF-CEM leukemia = tested on: CCRF-CEM leukemia
COLO 205 colon = tested on: COLO 205 colon
DU-145 prostate = tested on: DU-145 prostate
EKVX NSCLC = tested on: EKVX NSCLC
HCT-116 colon = tested on: HCT-116 colon
HCT-15 colon = tested on: HCT-15 colon
HL-60(TB) leukemia = tested on: HL-60(TB) leukemia
HOP-62 NSCLC = tested on: HOP-62 NSCLC
HOP-92 NSCLC = tested on: HOP-92 NSCLC
HS 578T breast = tested on: HS 578T breast
IGROV1 ovarian = tested on: IGROV1 ovarian
K-562 leukemia = tested on: K-562 leukemia
KM12 colon = tested on: KM12 colon
LOX IMVI melanoma = tested on: LOX IMVI melanoma
M14 melanoma = tested on: M14 melanoma
MALME-3M melanoma = tested on: MALME-3M melanoma
MCF7 breast = tested on: MCF7 breast
MDA-MB-231 breast = tested on: MDA-MB-231 breast
MDA-MB-435 = tested on: MDA-MB-435
MOLT-4 leukemia = tested on: MOLT-4 leukemia
NCI-H226 lung = tested on: NCI-H226 lung
NCI-H23 lung = tested on: NCI-H23 lung
NCI/ADR-RES ovarian = tested on: NCI/ADR-RES ovarian
OVCAR-3 ovarian = tested on: OVCAR-3 ovarian
OVCAR-4 ovarian = tested on: OVCAR-4 ovarian
OVCAR-5 ovarian = tested on: OVCAR-5 ovarian
OVCAR-8 ovarian = tested on: OVCAR-8 ovarian
PC-3 prostate = tested on: PC-3 prostate
RPMI-8226 leukemia = tested on: RPMI-8226 leukemia
RXF 393 renal = tested on: RXF 393 renal
SF-268 CNS = tested on: SF-268 CNS
SF-295 CNS = tested on: SF-295 CNS
SF-539 CNS = tested on: SF-539 CNS
SK-MEL-2 melanoma = tested on: SK-MEL-2 melanoma
SK-MEL-28 melanoma = tested on: SK-MEL-28 melanoma
SK-MEL-5 melanoma = tested on: SK-MEL-5 melanoma
SK-OV-3 ovarian = tested on: SK-OV-3 ovarian
SN12C renal = tested on: SN12C renal
SNB-19 CNS = tested on: SNB-19 CNS
SNB-75 CNS = tested on: SNB-75 CNS
T-47D breast = tested on: T-47D breast
TK-10 renal = tested on: TK-10 renal
U251 CNS = tested on: U251 CNS
UACC-257 melanoma = tested on: UACC-257 melanoma
UACC-62 melanoma = tested on: UACC-62 melanoma
UO-31 renal = tested on: UO-31 renal
HCC-2998 colon = tested on: HCC-2998 colon
HT29 colon = tested on: HT29 colon
NCI-H460 lung = tested on: NCI-H460 lung
NCI-H522 lung = tested on: NCI-H522 lung
SW-620 colon = tested on: SW-620 colon

## O=[N+]([O-])c1cc([N+](=O)[O-])c(Cl)cc1Cl
786-0 renal
  GI50: 1710 nM
  TGI: 3210 nM
A498 renal
  GI50: 1610 nM
  TGI: 4510 nM
A549 NSCLC
  GI50: 1640 nM
  TGI: 3270 nM
ACHN renal
  GI50: 1620 nM
  TGI: 3290 nM
BT-549 breast
  GI50: 1690 nM
  TGI: 3100 nM
CAKI-1 renal
  GI50: 188 nM
  TGI: 352 nM
CCRF-CEM leukemia
  GI50: 217 nM
  TGI: 505 nM
COLO 205 colon
  GI50: 1770 nM
  TGI: 3650 nM
DU-145 prostate
  GI50: 1560 nM
  TGI: 2900 nM
EKVX NSCLC
  GI50: 1680 nM
  TGI: 3310 nM
HCT-116 colon
  GI50: 661 nM
  TGI: 2170 nM
HCT-15 colon
  GI50: 1350 nM
  TGI: 3730 nM
HL-60(TB) leukemia
  GI50: 456 nM
  TGI: 2700 nM
HOP-62 NSCLC
  GI50: 1680 nM
  TGI: 3270 nM
HOP-92 NSCLC
  GI50: 1590 nM
  TGI: 4110 nM
HS 578T breast
  GI50: 2380 nM
  TGI: 7560 nM
IGROV1 ovarian
  GI50: 1170 nM
  TGI: 2740 nM
K-562 leukemia
  GI50: 249 nM
  TGI: 642 nM
KM12 colon
  GI50: 1640 nM
  TGI: 3050 nM
LOX IMVI melanoma
  GI50: 361 nM
  TGI: 1460 nM
M14 melanoma
  GI50: 1730 nM
  TGI: 3590 nM
MALME-3M melanoma
  GI50: 2050 nM
  TGI: 4270 nM
MCF7 breast
  GI50: 1670 nM
  TGI: 4230 nM
MDA-MB-231 breast
  GI50: 1940 nM
  TGI: 3700 nM
MDA-MB-435
  GI50: 1610 nM
  TGI: 3220 nM
MOLT-4 leukemia
  GI50: 918 nM
  TGI: 4400 nM
NCI-H226 lung
  GI50: 2220 nM
  TGI: 5780 nM
NCI-H23 lung
  GI50: 1400 nM
  TGI: 3000 nM
NCI/ADR-RES ovarian
  GI50: 1320 nM
  TGI: 2940 nM
OVCAR-3 ovarian
  GI50: 1420 nM
  TGI: 2730 nM
OVCAR-4 ovarian
  GI50: 1810 nM
  TGI: 3230 nM
OVCAR-5 ovarian
  GI50: 1780 nM
  TGI: 3600 nM
OVCAR-8 ovarian
  GI50: 1270 nM
  TGI: 2910 nM
PC-3 prostate
  GI50: 1350 nM
  TGI: 2880 nM
RPMI-8226 leukemia
  GI50: 667 nM
  TGI: 2800 nM
RXF 393 renal
  GI50: 1680 nM
  TGI: 3090 nM
SF-268 CNS
  GI50: 1640 nM
  TGI: 3130 nM
SF-295 CNS
  GI50: 1750 nM
  TGI: 3630 nM
SF-539 CNS
  GI50: 1730 nM
  TGI: 3490 nM
SK-MEL-2 melanoma
  GI50: 1830 nM
  TGI: 3440 nM
SK-MEL-28 melanoma
  GI50: 1740 nM
  TGI: 3240 nM
SK-MEL-5 melanoma
  GI50: 1790 nM
  TGI: 3680 nM
SK-OV-3 ovarian
  GI50: 1780 nM
  TGI: 3210 nM
SN12C renal
  GI50: 1760 nM
  TGI: 3550 nM
SNB-19 CNS
  GI50: 1950 nM
  TGI: 3660 nM
SNB-75 CNS
  GI50: 1510 nM
  TGI: 2920 nM
T-47D breast
  GI50: 1710 nM
  TGI: 4420 nM
TK-10 renal
  GI50: 1650 nM
  TGI: 3160 nM
U251 CNS
  GI50: 211 nM
  TGI: 476 nM
UACC-257 melanoma
  GI50: 594 nM
  TGI: 2040 nM
UACC-62 melanoma
  GI50: 1880 nM
  TGI: 3820 nM
UO-31 renal
  GI50: 340 nM
  TGI: 1480 nM

## CCc1c(-c2ccc(OC)cc2)oc(OC)c(C)c1=O
786-0 renal
  TGI: > 100000 nM
A498 renal
  TGI: > 100000 nM
A549 NSCLC
  TGI: > 100000 nM
ACHN renal
  TGI: > 100000 nM
BT-549 breast
  TGI: > 100000 nM
CAKI-1 renal
  TGI: > 100000 nM
CCRF-CEM leukemia
  TGI: > 100000 nM
COLO 205 colon
  TGI: > 100000 nM
DU-145 prostate
  TGI: > 100000 nM
EKVX NSCLC
  TGI: > 100000 nM
HCC-2998 colon
  TGI: > 100000 nM
HCT-116 colon
  TGI: > 100000 nM
HCT-15 colon
  TGI: > 100000 nM
HOP-62 NSCLC
  TGI: > 100000 nM
HOP-92 NSCLC
  TGI: > 100000 nM
HS 578T breast
  TGI: > 100000 nM
HT29 colon
  TGI: > 100000 nM
IGROV1 ovarian
  TGI: > 100000 nM
K-562 leukemia
  TGI: > 100000 nM
KM12 colon
  TGI: > 100000 nM
LOX IMVI melanoma
  TGI: > 100000 nM
M14 melanoma
  TGI: > 100000 nM
MCF7 breast
  TGI: > 100000 nM
MDA-MB-231 breast
  TGI: > 100000 nM
MDA-MB-435
  TGI: > 100000 nM
MOLT-4 leukemia
  TGI: > 100000 nM
NCI-H23 lung
  TGI: > 100000 nM
NCI-H460 lung
  TGI: > 100000 nM
NCI-H522 lung
  TGI: > 100000 nM
NCI/ADR-RES ovarian
  TGI: > 100000 nM
OVCAR-3 ovarian
  TGI: > 100000 nM
OVCAR-4 ovarian
  TGI: > 100000 nM
OVCAR-5 ovarian
  TGI: > 100000 nM
OVCAR-8 ovarian
  TGI: > 100000 nM
PC-3 prostate
  TGI: > 100000 nM
RXF 393 renal
  TGI: > 100000 nM
SF-268 CNS
  TGI: > 100000 nM
SF-295 CNS
  TGI: > 100000 nM
SF-539 CNS
  TGI: > 100000 nM
SK-MEL-2 melanoma
  TGI: > 100000 nM
SK-MEL-28 melanoma
  TGI: > 100000 nM
SK-MEL-5 melanoma
  TGI: > 100000 nM
SK-OV-3 ovarian
  TGI: > 100000 nM
SN12C renal
  TGI: > 100000 nM
SNB-19 CNS
  TGI: > 100000 nM
SNB-75 CNS
  TGI: > 100000 nM
SW-620 colon
  TGI: > 100000 nM
T-47D breast
  TGI: > 100000 nM
TK-10 renal
  TGI: > 100000 nM
U251 CNS
  TGI: > 100000 nM
UACC-257 melanoma
  TGI: > 100000 nM
UACC-62 melanoma
  TGI: > 100000 nM
UO-31 renal
  TGI: > 100000 nM
